Results as given in patent US10412961B2, “Substituted 2,3-dihydrobenzofuran compounds and their use as synergists” (Endura SPA, priority 2015, dated 2019).

Columns and labels:
[1] = molecular target: T1, E4, a resistance-associated esterase (Myzus persicae, UniProt P35501); conditions: compared with PBO; cited from earlier work
T1 sequence (P35501 24-552): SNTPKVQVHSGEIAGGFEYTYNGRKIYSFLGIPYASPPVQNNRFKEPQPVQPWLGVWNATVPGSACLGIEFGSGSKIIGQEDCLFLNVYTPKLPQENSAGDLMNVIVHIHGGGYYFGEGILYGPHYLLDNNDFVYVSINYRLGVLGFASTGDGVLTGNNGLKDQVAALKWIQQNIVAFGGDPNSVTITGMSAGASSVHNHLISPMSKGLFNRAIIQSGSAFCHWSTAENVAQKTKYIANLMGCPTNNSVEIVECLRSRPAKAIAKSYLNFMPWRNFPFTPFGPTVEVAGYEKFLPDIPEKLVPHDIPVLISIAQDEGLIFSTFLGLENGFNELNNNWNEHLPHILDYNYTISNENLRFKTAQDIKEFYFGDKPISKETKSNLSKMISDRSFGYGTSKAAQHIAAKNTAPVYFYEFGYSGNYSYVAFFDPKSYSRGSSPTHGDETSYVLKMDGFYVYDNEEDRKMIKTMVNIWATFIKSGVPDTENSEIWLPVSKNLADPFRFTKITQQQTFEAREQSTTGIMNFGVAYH

[2] = molecular target: T2, FE4 Myzus persicae esterases (Myzus persicae, UniProt P35502); experiment: Inhibition of esterase FE4, 4-nitrophenyl acetate model substrate assay; format: biochemical; conditions: purified FE4, 2.5 μL of 10 mM compound in acetone, 10 min incubation, substrate 4-nitrophenyl acetate 0.8 mM, read at 405 nm
T2 construct: would be utilised for the purified esterases from aphids; from tissue; host or cells: aphids (Myzus persicae), purified esterase
T2 sequence (P35502 24-564): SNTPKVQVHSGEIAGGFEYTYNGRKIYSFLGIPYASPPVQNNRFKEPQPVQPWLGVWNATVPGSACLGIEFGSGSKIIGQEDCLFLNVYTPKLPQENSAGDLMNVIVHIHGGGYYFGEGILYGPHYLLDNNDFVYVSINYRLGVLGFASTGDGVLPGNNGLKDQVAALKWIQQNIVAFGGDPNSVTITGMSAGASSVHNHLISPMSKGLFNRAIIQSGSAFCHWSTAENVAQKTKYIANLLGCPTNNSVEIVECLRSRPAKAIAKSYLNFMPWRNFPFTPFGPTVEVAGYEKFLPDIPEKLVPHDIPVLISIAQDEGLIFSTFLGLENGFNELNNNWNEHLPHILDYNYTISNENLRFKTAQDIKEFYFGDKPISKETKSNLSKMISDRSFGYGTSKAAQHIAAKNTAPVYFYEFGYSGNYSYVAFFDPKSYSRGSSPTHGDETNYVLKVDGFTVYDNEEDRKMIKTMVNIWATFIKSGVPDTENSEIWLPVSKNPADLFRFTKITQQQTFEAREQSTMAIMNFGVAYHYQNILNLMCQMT
Protocol: Inhibition of Esterasenzymes by Synergists in Myzus persicae
It was envisaged, therefore, that the ‘esterase intereference assay’ (Khot et al., 2008) would be utilised for the purified esterases from aphids. Various esterase substrates were assessed to find one suitable of monitoring inhibition in an insect homogenate. The Myzus persicae resistance associated esterase, FE4, was used.
Initially the esterase interference assay was carried out, as being the ‘absolute’ protocol for characterizing interactions between the compounds of Example 1-9 and FE4. However, since this is a protracted method, a selection of products already reported in the literature were used to compare the interference assay and the use of a model substrate.
From the literature (Philippou et al., 2013) it is known that 1-naphthyl acetate is not suitable for this assay. Instead, 4-nitrophenyl acetate was used. A 10 mM pNA stock was prepared in acetone and added to 0.02 M phosphate buffer pH 7.0 (final concentration 2 mM). The comparison was made with 6 PBO analogues of variable efficacy.
For the assay 10 μL of purified FE4 was diluted to a total volume of 50 μL by the addition of 0.02 M phosphate buffer, pH 7.0 in individual wells of a microplate (maxisorb, NUNC). To each well, 2.5 μL of 10 mM of the compound of Example 1 and of Example 2 in acetone was added and incubated for 10 mins, with acetone only used as a control. Following incubation, 100 μL of 0.02 phosphate buffer, pH 7.0 and 100 μL of 2 mM 4-nitrophenyl acetate was added (final volume in well 250 μL, final substrate concentration 0.8 mM). Enzyme activity was read at 405 nm in a Spectramax Tmax for 5 min, with readings taken every 5 secs. The rate (mOD min^−1) was calculated by the integrated software, Softmax Pro v.5.4.

Bemisia tabaci CYPCM1 = conditions: recombinant enzyme 50 μL + 3 μL of 10 mM compound stock in acetone, 10 min incubation at room temperature, substrate 7-ethoxycoumarin, NADPH
Protocol: Ability of the compounds of the invention to inhibit oxidative enzymes (P450), a major mechanism conferring resistance to xenobiotics, was measured using recombinant enzymes corresponding to CYPCM1 from Bemisia tabaci.
Substrate used was 7-ethoxycoumarin for inhibition assays as described by Ulrich and Weber (1972) and adapted to microplate format as described by De Sousa et al. (1995).
Diluted recombinant enzyme (50 μL) was mixed with 3 μL of the above mentioned compound stock solutions, with acetone only used as a control. After 10 min incubation at room temperature, 80 μL of 0.125 mM 7- ethoxycoumarin was added, followed by 10 μL 9.6 mM NADPH (nicotinamide adenine dinucleotide phosphate) in 0.1 M sodium phosphate, pH 7.8, and O-deethylation activity monitored as above. A PBO solution (10 mM) was prepared in the same way as a comparison.

Structure (SMILES): CC#CCOc1ccc2c(c1)OCC2 [EN16-18, 6-(but-2-ynyloxy)-2,3-dihydrobenzofuran]
- binding affinity [1]: comparable with PBO

Structure (SMILES): C#CCOCc1cc(CCCCCC)cc2c1OCC2 [Example 1, 5-n-hexyl-7-((prop-2-ynyloxy)methyl)-2,3-dihydrobenzofuran]
- remaining activity at 10000 µM (stock) [2]: 26.2%

Structure (SMILES): CC#CCOCc1cc(CCCCCC)cc2c1OCC2 [Example 2, 5-n-hexyl-7-((but-2-ynyloxy)methyl)-2,3-dihydrobenzofuran]
- remaining activity at 10000 µM (stock) [2]: 35.4%
- % activity remaining (Bemisia tabaci CYPCM1): 27.49%

Structure (SMILES): CC#CCOCc1cc(CCCC)cc2c1OCC2 [Example 3, 5-n-butyl-7-((but-2-ynyloxy)methyl)-2,3-dihydrobenzofuran]
- remaining activity at 10000 µM (stock) [2]: 19.9%
- % activity remaining (Bemisia tabaci CYPCM1): 3.16%

Structure (SMILES): CC#CCOc1cc(CCCCCC)cc2c1OCC2 [Example 4, 5-n-hexyl-7-(but-2-ynyloxy)-2,3-dihydrobenzofuran]
- remaining activity at 10000 µM (stock) [2]: 24%
- % activity remaining (Bemisia tabaci CYPCM1): 39.22%

Structure (SMILES): C#CCOCc1cc(CCCC)cc2c1OCC2 [Example 5, 5-n-butyl-7-((prop-2-ynyloxy)methyl)-2,3-dihydrobenzofuran]
- remaining activity at 10000 µM (stock) [2]: 18.4%
- % activity remaining (Bemisia tabaci CYPCM1): 87.62%

Structure (SMILES): C#CCOc1cc(CCCCCC)cc2c1OCC2 [Example 6, 5-n-hexyl-7-(prop-2-ynyloxy)-2,3-dihydrobenzofuran]
- remaining activity at 10000 µM (stock) [2]: 29.8%
- % activity remaining (Bemisia tabaci CYPCM1): 61.16%

Structure (SMILES): CC#CCOCc1cc(CCC)cc2c1OCC2 [Example 7, 5-n-propyl-7-((but-2-ynyloxy)methyl)-2,3-dihydrobenzofuran]
- remaining activity at 10000 µM (stock) [2]: 19.9%
- % activity remaining (Bemisia tabaci CYPCM1): 17.92%

Structure (SMILES): C#CCOCc1cc(CCC)cc2c1OCC2 [Example 8, 5-n-propyl-7-((prop-2-ynyloxy)methyl)-2,3-dihydrobenzofuran]
- remaining activity at 10000 µM (stock) [2]: 23.9%
- % activity remaining (Bemisia tabaci CYPCM1): 86.22%
